Values quoted from earlier work as cited in patent US20080269334A1, “Highly Concentrated Pourable Aqueous Solutions Of Potassium Ibuprofen, Their Preparation And Their Use” (ALBEMARLE CORPORATION, priority 2005, published 2008).

SMILES	solubility of ibuprofen in a solvent system (402 mg ibuprofen, 100 mg PEG 600, 3.3 wt % glycerin or propylene glycol, 6.4 wt % water, 38.4 mg KOH, U.S. Pat. Nos. 5,071,643 and 5,360,615) [%]	concentration of dissolved potassium ibuprofen (U.S. Pat. No. 5,912,011 Table 1, system with 35.2 wt % ibuprofen, 33.3 wt % PEG 600, 7.3 wt % water) [wt %]	maximum concentration of dissolved potassium ibuprofen shown (U.S. Pat. No. 6,387,400, polyethylene glycol solvent, less than about 50 mole % of ibuprofen converted to the potassium salt)
CC(C)Cc1ccc(C(C)C(=O)O)cc1 (stereo not drawn) [ibuprofen]	67		
CC(C)Cc1ccc(C(C)C(=O)[O-])cc1.[K+] (stereo not drawn) [potassium ibuprofen, potassium 2-(4-isobutylphenyl)propionate]		24.2	about 24.2 wt %
